# Results from ChEMBL document CHEMBL1201862, “PubChem BioAssay data set” (2004).
#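 Dose response: 5 concentrations. Exposure: 48 h. Format: 96-well plates. Endpoint: linear interpolation; highest concentration if not reached. At the GI50, growth is halved.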 The source made the active and inactive calls. Rule as the data show it: active = GI50 up to about 1.1 µM and inactive = higher.
# Experiments:
# Assay in all cases: DTP human tumour cell line panel, 48 h
# A498 = tested on: A498
# A549 = tested on: A549
# CAKI-1 = tested on: CAKI-1
# COLO 205 = tested on: COLO 205
# HCT-15 = tested on: HCT-15
# HOP-62 = tested on: HOP-62
# IGROV-1 = tested on: IGROV-1
# M14 = tested on: M14
# NCI-H226 = tested on: NCI-H226
# OVCAR-4 = tested on: OVCAR-4
# SF-268 = tested on: SF-268
# SF-539 = tested on: SF-539
# SK-MEL-2 = tested on: SK-MEL-2
# SK-MEL-5 = tested on: SK-MEL-5
# SR = tested on: SR
# NCI-H522 = tested on: NCI-H522
SMILES,GI50 (A498),GI50 (A549),GI50 (CAKI-1),GI50 (COLO 205),GI50 (HCT-15),GI50 (HOP-62),GI50 (IGROV-1),GI50 (M14),GI50 (NCI-H226),GI50 (OVCAR-4),GI50 (SF-268),GI50 (SF-539),GI50 (SK-MEL-2),GI50 (SK-MEL-5),GI50 (SR),GI50 (NCI-H522)
COc1cc([C@@H]2c3cc4c(cc3[C@@H](NCc3ccccc3)C3COC(=O)[C@@H]32)OCO4)cc(OC)c1O (stereo partly drawn),6.05 µM (inactive),1.41 µM (inactive),2.24 µM (inactive),27.2 µM (inactive),6.34 µM,4 µM (inactive),21.3 µM (inactive),6.65 µM (inactive),3.46 µM (inactive),38.2 µM (inactive),7.19 µM (inactive),6 µM (inactive),23.4 µM (inactive),11.8 µM (inactive),0.345 µM (active),
O=[N+]([O-])c1ccc(Sc2c3ccccc3nc3cc(Cl)ccc23)cc1,> 10 µM (inactive),,> 10 µM (inactive),> 10 µM (inactive),> 10 µM,> 10 µM (inactive),> 10 µM (inactive),> 10 µM (inactive),> 10 µM (inactive),> 10 µM (inactive),> 10 µM (inactive),> 10 µM (inactive),> 10 µM (inactive),> 10 µM (inactive),25.7 µM (inactive),> 10 µM (inactive)
COc1ccc(C(=O)O)c(Cc2cccc3ccccc23)c1,,> 100 µM (inactive),73.5 µM (inactive),> 100 µM (inactive),> 100 µM,> 100 µM (inactive),> 100 µM (inactive),> 100 µM (inactive),> 100 µM (inactive),> 100 µM (inactive),> 100 µM (inactive),,> 100 µM (inactive),> 100 µM (inactive),> 100 µM (inactive),> 100 µM (inactive)
CC1/C(=N\O)CC(c2ccccc2)N(C)C1c1ccccc1 (stereo not drawn),> 100 µM (inactive),> 100 µM (inactive),> 100 µM (inactive),> 100 µM (inactive),> 100 µM,> 100 µM (inactive),> 100 µM (inactive),> 100 µM (inactive),> 100 µM (inactive),> 100 µM (inactive),> 100 µM (inactive),> 100 µM (inactive),> 100 µM (inactive),> 100 µM (inactive),,> 100 µM (inactive)
CC1=CC(=O)NCCN1C,> 100 µM (inactive),> 100 µM (inactive),> 100 µM (inactive),> 100 µM (inactive),> 100 µM,> 100 µM (inactive),> 100 µM (inactive),> 100 µM (inactive),> 100 µM (inactive),> 100 µM (inactive),> 100 µM (inactive),> 100 µM (inactive),> 100 µM (inactive),> 100 µM (inactive),> 100 µM (inactive),> 100 µM (inactive)
O=C(NC1C(=O)NNC1c1cccc([N+](=O)[O-])c1)c1ccccc1 (stereo not drawn),,> 100 µM (inactive),,> 100 µM (inactive),,> 100 µM (inactive),> 100 µM (inactive),> 100 µM (inactive),> 100 µM (inactive),> 100 µM (inactive),> 100 µM (inactive),,> 100 µM (inactive),> 100 µM (inactive),,
O=C(CC(=O)c1cccc2ccccc12)C(=O)Nc1ccc(Cl)cc1,> 100 µM (inactive),> 100 µM (inactive),> 100 µM (inactive),> 100 µM (inactive),> 100 µM,> 100 µM (inactive),> 100 µM (inactive),> 100 µM (inactive),> 100 µM (inactive),> 100 µM (inactive),> 100 µM (inactive),> 100 µM (inactive),,> 100 µM (inactive),,> 100 µM (inactive)
CC(=O)Oc1c2c(c(OC(C)=O)c3c1n(C(C)=O)c1ccccc1n3C(C)=O)n(C(C)=O)c1ccccc1n2C(C)=O,18.4 µM (inactive),6.22 µM (inactive),10.9 µM (inactive),,3.27 µM,8.17 µM (inactive),> 10 µM (inactive),4.44 µM (inactive),,16.9 µM (inactive),7.05 µM (inactive),13.4 µM (inactive),5.18 µM (inactive),7.76 µM (inactive),2.62 µM (inactive),2.3 µM (inactive)
COc1cc(C2c3cc4c(cc3C(NCC(O)CO)C3COC(=O)[C@H]23)OCO4)cc(OC)c1OC (stereo partly drawn),,,,0.184 µM (active),2.45 µM,0.221 µM (active),> 100 µM (inactive),0.533 µM (active),0.289 µM (active),,0.374 µM (active),0.146 µM (active),,,0.177 µM (active),0.0405 µM (active)
CO[C@H](C(=O)O[C@H]1C(=O)N2CCC3CCC1C32C)c1ccccc1 (stereo partly drawn),,> 100 µM (inactive),> 100 µM (inactive),> 100 µM (inactive),> 100 µM,> 100 µM (inactive),> 100 µM (inactive),> 100 µM (inactive),> 100 µM (inactive),> 100 µM (inactive),> 100 µM (inactive),> 100 µM (inactive),> 100 µM (inactive),> 100 µM (inactive),> 100 µM (inactive),> 100 µM (inactive)
